From patent US9983218B2, “Indole and indoline derivatives and methods of use thereof” (AbbVie Inc., priority 2008, dated 2018)
Like-named read-outs stand apart in the source and are kept apart here.

How the values were obtained:
[1] = test system: primary postnatal (P0) cortical cells; assay: Neurite outgrowth assay (Aβ1-42-induced reduction of neurite outgrowth, high content microscopy); format: cell-based, rat; conditions: for Emax: Rattus norvegicus, read-out: Maximum Effect (of % 300 nM Dimebolin)
Experimental: In addition to PC12 cells, other cellular model systems may also be used. Rat cortical cells were cultured and prepared for high content microscopy analysis as previously described (Hu, M.; Schurdak, M. E.; et al. High content screen microscopy analysis of Aβ1-42-induced neurite outgrowth reduction in rat primary cortical neurons: Neuroprotective effects of α7 neuronal nicotinic acetylcholine receptor ligands. Brain Res. 2007, 1151, 227-235.). Briefly, cortical cell cultures were plated at density of 5×10^5 cells/mL onto poly-D-lysine coated 96-well plates and maintained in a cell incubator at 37° C. with 5% CO2. Experiments were performed using 6-7 day-old cortical cell cultures by treating with test compounds. In some experiments, the effect of test compounds on reversing Aβ toxicity were also measured (Hu, M.; Schurdak, M. E.; et al. High content screen microscopy analysis of Aβ1-42-induced neurite outgrowth reduction in rat primary cortical neurons: Neuroprotective effects of α7 neuronal nicotinic acetylcholine receptor ligands. Brain Res. 2007, 1151, 227-235.). For assessment of neuroprotective effects, cells were first pretreated with test compounds for about 5 hours. Medium was then replaced with the medium containing freshly prepared about 5 μM Aβ1-42 peptide in the absence or presence of the test compounds for 3 days. The untreated group contained the same percentage of vehicle (DMSO) as in the treatment groups. Cells were fixed with approximately 4% paraformaldehyde containing 0.5% Hoechst 33342 for about 15 minutes, followed by three washes using PBS (pH 7.4) and blocked with 10% donkey serum in PBS for 1 hour at room temperature. The cells were then incubated overnight at about 4° C. with mouse anti-tubulin monoclonal antibody (1:100) for staining neurons and rabbit anti-GFAP (1:1000) for staining glia. In the next day, cells were incubated with FITC-labeled anti-mouse and TRITC-labeled anti-rabbit antibodies (1:1000) for about 1 hour at room temperature. After fixing and staining the cells, nuclei (360/400 nm excitation and 465/300 nm emission filters), neuron (475/350 nm excitation and 535/400 nm emission filters) and glial cell (535 nm excitation and 610 nm emission filters) images were collected using the ImageExpress Micro automatic fluorescent microscopy system (Molecular Devices, Sunnyvale, Calif.) employing a Nikon 10× Plan Fluor objective and Cool Snap HQ CCD camera. The Neurite Outgrowth module in the MetaMorph Imaging software was used to automatically count total cell number, number of neuron cells, and the extent of neurite outgrowth.
In the graph of FIG. 2, 100% response was the response observed for untreated cells. Exposure to Aβ1-42 produced a decrease in neurite outgrowth. Treatment of cells with compounds prior to and concomitantly with Aβ1-42 gave a neuroprotective effect with neurite outgrowth maintained or enhanced relative to untreated cells.

[2] = test system: SK-N-SH human neuroblastoma cells; assay: Serum deprivation/JC-1 mitochondrial membrane potential (MMP) assay; format: cell-based; conditions: for Emax: SK-N-SH, read-out: JC-1 max %; for EC50: SK-N-SH cells, serum deprivation ~18 hours, JC-1 ratio normalized to peak value for 10 μM dimebolin, single curve fit to mean data of n=2-3, read-out: EC50
How it was run: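 Cells were serum-deprived ~18 h in MEM with or without compound (DMSO ≤1%), then stained with JC-1 for 35 min at 37° C. The red/green fluorescence ratio (560/595 vs 485/535 nm) was normalized to the peak response of 10 μM dimebolin. EC50 came from one curve fit to mean data (n=2-3, duplicates).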

[3] = maximum response relative to 300 nM dimebolin, at the concentration given
[4] = Homo sapiens, percent maximal intensity in JC-1 ratio normalized to 10 μM dimebolin

SMILES | Emax [1, 3] [%] | Emax [2, 4] [%] | EC50 ([2]; Homo sapiens) [µM] | also measured
Fc1ccc2c(c1)c1c(n2-c2ccc3ncccc3c2)C2CCN(CC2)C1 [Example 228, 9-fluoro-6-quinolin-6-yl-3,4,5,6-tetrahydro-1H-2,5-ethanoazepino[4,3-b]indole] | 141 | 263 | 1.73 | –
Cc1ccc2c(c1)c1c(n2CCc2cccc(C(F)(F)F)c2)CC2CCC1N2C (stereo not shown) [Example 50, 2,11-dimethyl-5-{2-[3-(trifluoromethyl)phenyl]ethyl}-5,6,7,8,9,10-hexahydro-7,10-epiminocyclohepta[b]indole] | 101 | 175 | 6.45 | –
Cc1ccc2c(c1)c1c(n2CCc2cccc(C(F)(F)F)c2)C[C@@H]2CCC[C@H]1N2 [Example 135, (7S,11R)-2-methyl-5-{2-[3-(trifluoromethyl)phenyl]ethyl}-6,7,8,9,10,11-hexahydro-5H-7,11-epiminocycloocta[b]indole] | 126 | – | – | –
Fc1ccc2c(c1)c1c(n2-c2cccnc2)C2CCN(CC2)C1 [Example 264, 9-fluoro-6-(pyridin-3-yl)-3,4,5,6-tetrahydro-1H-2,5-ethanoazepino[4,3-b]indole] | 110 | 107 | 7.8 | –
Cc1ccc2c(c1)c1c(n2CCc2cnc(C)nc2)C[C@H]2CC[C@@H]1N2C [Example 31, (7R,10S)-2,11-dimethyl-5-[2-(2-methylpyrimidin-5-yl)ethyl]-5,6,7,8,9,10-hexahydro-7,10-epiminocyclohepta[b]indole] | 96 | 97 | 6.05 | –
Fc1ccc2c(c1)c1c(n2Cc2ccc(Br)cc2)C2CCN(CC2)C1 [Example 167, 6-(4-bromobenzyl)-9-fluoro-3,4,5,6-tetrahydro-1H-2,5-ethanoazepino[4,3-b]indole] | 92 | 149 | 4.71 | –
c1cnc2ccc(-n3c4c(c5ccccc53)[C@@H]3CC[C@H](C4)N3)cc2c1 [Example 282, (7R,10S)-5-(quinolin-6-yl)-5,6,7,8,9,1-hexahydro-7,10-epiminocyclohepta[b]indole] | – | – | – | Maximum Effect (of % 300 nM Dimebolin) [1, 3]: 115%; Concentration (nM) at which the maximum effect was noted ([1]; test compound concentration giving the maximum response): 30 nM; EC50 [2]: 3.21 µM; JC-1 max % ([2]; percent maximal intensity in JC-1 ratio normalized to 10 μM dimebolin): 228%
Cc1ccc2c(c1)[C@H]1CN3CCC(CC3)[C@H]1N2CCc1ccc(C)nc1 (relative stereo) [Example 158, (5aR*,10bS*)-9-methyl-6-[2-(6-methylpyridin-3-yl)ethyl]-3,4,5,5a,6,10b-hexahydro-1H-2,5-ethanoazepino[4,3-b]indole] | 110 | – | – | –
c1ccc2c(c1)c1c(n2-c2ccc3ccncc3c2)C[C@H]2CC[C@@H]1N2 (single isomer, unassigned) [Example 279] | 108 | 209 | 5.49 | –
CC1CCCN1c1ccc(Cn2c3c(c4cc(F)ccc42)CN2CCC3CC2)cn1 (stereo not shown) [Example 240, 9-fluoro-6-{[6-(2-methylpyrrolidin-1-yl)pyridin-3-yl]methyl}-3,4,5,6-tetrahydro-1H-2,5-ethanoazepino[4,3-b]indole] | – | 170 | 3.33 | –
Fc1ccc(Cn2c3c(c4cc(F)ccc42)CN2CCC3CC2)cc1 [Example 165, 9-fluoro-6-(4-fluorobenzyl)-3,4,5,6-tetrahydro-1H-2,5-ethanoazepino[4,3-b]indole] | 104 | – | – | –
c1cncc(Cn2c3c(c4ccccc42)CN2CCC3CC2)c1 [Example 188, 6-(pyridin-3-ylmethyl)-3,4,5,6-tetrahydro-1H-2,5-ethanoazepino[4,3-b]indole] | – | 96 | 6.52 | –
O=c1ccnc2ccc(-n3c4c(c5ccccc53)[C@@H]3CC[C@H](C4)N3)cn12 (single isomer, unassigned) [Example 284] | – | 108 | 7.62 | –
Fc1ccc2c(c1)c1c(n2-c2ccc3cccnc3c2)C2CCN(CC2)C1 [Example 226, 9-fluoro-6-quinolin-7-yl-3,4,5,6-tetrahydro-1H-2,5-ethanoazepino[4,3-b]indole] | – | 307 | 1.68 | –
Cc1ccc2c(c1)c1c(n2S(=O)(=O)c2cccnc2)CC2CCC1N2C (stereo not shown) [Example 77, 2,11-dimethyl-5-(pyridin-3-ylsulfonyl)-5,6,7,8,9,10-hexahydro-7,10-epiminocyclohepta[b]indole] | – | 223 | 9.22 | –
CC(C)c1ccc2c(c1)c1c(n2CCc2ccc(Cl)cc2)C[C@H]2CC[C@@H]1N2C (single isomer, unassigned) [Example 100] | – | 140 | 3.63 | –
Fc1ccc2c(c1)c1c(n2-c2ccc3ccccc3n2)C2CCN(CC2)C1 [Example 224, 9-fluoro-6-quinolin-2-yl-3,4,5,6-tetrahydro-1H-2,5-ethanoazepino[4,3-b]indole] | – | 215 | 3.17 | –
Cc1ccc2c(c1)c1c(n2CC(=O)Nc2ccc(Cl)cc2)C2CCN(CC2)C1 [Example 155, N-(4-chlorophenyl)-2-(9-methyl-1,3,4,5-tetrahydro-6H-2,5-ethanoazepino[4,3-b]indol-6-yl)acetamide] | – | 63 | 7.53 | –
Fc1ccc2c(c1)c1c(n2Cc2nc3ccccc3[nH]2)C2CCN(CC2)C1 [Example 250, 6-(1H-benzimidazol-2-ylmethyl)-9-fluoro-3,4,5,6-tetrahydro-1H-2,5-ethanoazepino[4,3-b]indole] | – | 77.3 | 8.37 | –
Cc1ncc(-n2c3c(c4cc(F)ccc42)CN2CCC3CC2)cn1 [Example 263, 9-fluoro-6-(2-methylpyrimidin-5-yl)-3,4,5,6-tetrahydro-1H-2,5-ethanoazepino[4,3-b]indole] | – | 108 | 11 | –
Cc1ccc(CCn2c3c(c4cc(C(C)(C)C)ccc42)C2CCC(C3)N2C)cn1 (stereo not shown) [Example 104, 2-tert-butyl-11-methyl-5-[2-(6-methylpyridin-3-yl)ethyl]-5,6,7,8,9,10-hexahydro-7,10-epiminocyclohepta[b]indole] | – | 178 | 4.16 | –
Cc1ccc(CCn2c3c(c4ccccc42)C2CCC(C3)N2C)cn1 (stereo not shown) [Example 78, 11-methyl-5-[2-(6-methylpyridin-3-yl)ethyl]-5,6,7,8,9,10-hexahydro-7,10-epiminocyclohepta[b]indole] | – | 211 | 9.69 | –
Fc1ccc2c(c1)c1c(n2Cc2ccncc2)C2CCN(CC2)C1 [Example 186, 9-fluoro-6-(pyridin-4-ylmethyl)-3,4,5,6-tetrahydro-1H-2,5-ethanoazepino[4,3-b]indole] | – | 93 | 14.6 | –
Cc1ccc2c(c1)c1c(n2CCc2cccc(C(F)(F)F)c2)C[C@H]2CCC[C@@H]1N2 (single isomer, unassigned) [Example 133] | 108 | – | – | –
Fc1ccc2c(c1)c1c(n2Cc2ccccn2)C2CCN(CC2)C1 [Example 184, 9-fluoro-6-(pyridin-2-ylmethyl)-3,4,5,6-tetrahydro-1H-2,5-ethanoazepino[4,3-b]indole] | – | 175 | 10.7 | –
O=c1cccnn1CCn1c2c(c3cc(F)ccc31)CN1CCC2CC1 [Example 238, 2-[2-(9-fluoro-1,3,4,5-tetrahydro-6H-2,5-ethanoazepino[4,3-b]indol-6-yl)ethyl]pyridazin-3(2H)-one] | – | 86.5 | 11.6 | –
Cc1ccc(/C=C/n2c3c(c4cc(C)ccc42)[C@@H]2CC[C@H](C3)N2C)cc1 [Example 59, (7R,10S)-2,11-dimethyl-5-[(E)-2-(4-methylphenyl)vinyl]-5,6,7,8,9,10-hexahydro-7,10-epiminocyclohepta[b]indole] | – | 202 | 4.14 | –
